Experimental data reported in the NIST ThermoML archive (doi:10.1021/je500917k).

Experiment: xn = mol fraction of the nth substance listed
Conditions: 100 kPa, Liquid; for speed of sound: Frequency=2 MHz

CCN1CCCC1=O [1-ethyl-2-pyrrolidinone] + CNCCO
Conditions	mass density [kg/m3]	speed of sound [m/s]	viscosity [mPa·s]
293.15 K, x1 = 0.0905	947.11	1479.8	9.188
293.15 K, x1 = 0.1825	953.11	1478.5	6.79
293.15 K, x1 = 0.2767	958.92	1478.5	5.162
293.15 K, x1 = 0.3731	964.75	1480.1	4.095
293.15 K, x1 = 0.4713	970.4	1483.1	3.496
293.15 K, x1 = 0.5725	975.84	1486.9	2.951
293.15 K, x1 = 0.6756	981.28	1491.4	2.648
293.15 K, x1 = 0.7808	986.73	1497.9	2.358
293.15 K, x1 = 0.8888	992.12	1504.7	2.231
293.15 K, x1 = 1	997.71	1512.1	2.117
303.15 K, x1 = 0.0905	939.11	1447.2	6.239
303.15 K, x1 = 0.1825	944.94	1445.2	4.715
303.15 K, x1 = 0.2767	950.62	1444.1	3.747
303.15 K, x1 = 0.3731	956.31	1444.9	3.068
303.15 K, x1 = 0.4713	961.92	1447.3	2.666
303.15 K, x1 = 0.5725	967.33	1450.6	2.339
303.15 K, x1 = 0.6756	972.75	1454.6	2.125
303.15 K, x1 = 0.7808	978.18	1460.6	1.94
303.15 K, x1 = 0.8888	983.56	1467	1.83
303.15 K, x1 = 1	989.14	1474.2	1.771
313.15 K, x1 = 0.0905	931.05	1414.1	4.394
313.15 K, x1 = 0.1825	936.73	1411.3	3.488
313.15 K, x1 = 0.2767	942.28	1409.4	2.89
313.15 K, x1 = 0.3731	947.87	1409.5	2.409
313.15 K, x1 = 0.4713	953.42	1411.6	2.123
313.15 K, x1 = 0.5725	958.78	1414.3	1.914
313.15 K, x1 = 0.6756	964.1	1418	1.776
313.15 K, x1 = 0.7808	969.61	1423.5	1.639
313.15 K, x1 = 0.8888	974.99	1429.4	1.546
313.15 K, x1 = 1	980.56	1436	1.518
323.15 K, x1 = 0.0905	922.92	1381	3.293
323.15 K, x1 = 0.1825	928.44	1377.6	2.683
323.15 K, x1 = 0.2767	933.89	1375.1	2.267
323.15 K, x1 = 0.3731	939.38	1374.6	1.943
323.15 K, x1 = 0.4713	944.88	1376.1	1.747
323.15 K, x1 = 0.5725	950.21	1378.3	1.58
323.15 K, x1 = 0.6756	955.61	1381.7	1.478
323.15 K, x1 = 0.7808	961.03	1386.8	1.41
323.15 K, x1 = 0.8888	966.4	1392.3	1.331
323.15 K, x1 = 1	971.96	1398.5	1.299

CCNCCO [2-(ethylamino)ethanol] + CCN1CCCC1=O
Conditions	mass density [kg/m3]	speed of sound [m/s]	viscosity [mPa·s]
293.15 K, x2 = 0	917.79	1442.4	15.28
293.15 K, x2 = 0.111	925.54	1444.5	10.35
293.15 K, x2 = 0.2179	933.77	1448.8	7.447
293.15 K, x2 = 0.3242	941.8	1453.7	5.665
293.15 K, x2 = 0.4274	949.86	1459.7	4.571
293.15 K, x2 = 0.5359	958.36	1468	3.849
293.15 K, x2 = 0.6269	965.64	1473.3	3.126
293.15 K, x2 = 0.7225	973.71	1482	2.717
293.15 K, x2 = 0.8177	981.7	1491.1	2.458
293.15 K, x2 = 0.9095	989.6	1501	2.261
303.15 K, x2 = 0	909.82	1408.3	9.59
303.15 K, x2 = 0.111	917.42	1409.8	6.874
303.15 K, x2 = 0.2179	925.53	1413.7	5.212
303.15 K, x2 = 0.3242	933.46	1418.1	4.093
303.15 K, x2 = 0.4274	941.44	1423.5	3.257
303.15 K, x2 = 0.5359	949.89	1431.6	2.917
303.15 K, x2 = 0.6269	957.14	1436.5	2.458
303.15 K, x2 = 0.7225	965.19	1445	2.205
303.15 K, x2 = 0.8177	973.17	1453.7	2.013
303.15 K, x2 = 0.9095	981.06	1463.3	1.891
313.15 K, x2 = 0	901.79	1374.5	6.406
313.15 K, x2 = 0.111	909.24	1375.4	4.824
313.15 K, x2 = 0.2179	917.23	1378.8	3.79
313.15 K, x2 = 0.3242	925.07	1382.8	3.092
313.15 K, x2 = 0.4274	932.99	1387.9	2.609
313.15 K, x2 = 0.5359	941.38	1395.5	2.311
313.15 K, x2 = 0.6269	948.61	1400	1.979
313.15 K, x2 = 0.7225	956.65	1408.2	1.834
313.15 K, x2 = 0.8177	964.63	1416.7	1.684
313.15 K, x2 = 0.9095	972.5	1425.7	1.578
323.15 K, x2 = 0	893.68	1340.9	4.527
323.15 K, x2 = 0.111	900.98	1341.1	3.563
323.15 K, x2 = 0.2179	908.86	1344.1	2.873
323.15 K, x2 = 0.3242	916.63	1347.7	2.399
323.15 K, x2 = 0.4274	924.49	1352.5	2.053
323.15 K, x2 = 0.5359	932.84	1359.8	1.833
323.15 K, x2 = 0.6269	940.06	1364.2	1.664
323.15 K, x2 = 0.7225	948.09	1372	1.547
323.15 K, x2 = 0.8177	956.06	1380	1.435
323.15 K, x2 = 0.9095	963.93	1388.8	1.367
